How the values were obtained:
Assay type in all cases: biochemical
Settings in all cases: ATP 100 μM
Tyk2 = Tyk2 (Homo sapiens (Human), UniProt P29597); experiment: Enzyme assay (Assay Example^a 1), Tyk2
JAK3 = JAK3 (Homo sapiens (Human), UniProt P52333); experiment: Enzyme assay (Assay Example^a 1), JAK3
JAK1 = JAK1 (Homo sapiens (Human), UniProt P23458); experiment: Enzyme assay (Assay Example^a 1), JAK1
JAK2 = JAK2 (Homo sapiens (Human), UniProt O60674); experiment: Enzyme assay (Assay Example^a 1), JAK2

JAK3, sequence (P52333 whole entry): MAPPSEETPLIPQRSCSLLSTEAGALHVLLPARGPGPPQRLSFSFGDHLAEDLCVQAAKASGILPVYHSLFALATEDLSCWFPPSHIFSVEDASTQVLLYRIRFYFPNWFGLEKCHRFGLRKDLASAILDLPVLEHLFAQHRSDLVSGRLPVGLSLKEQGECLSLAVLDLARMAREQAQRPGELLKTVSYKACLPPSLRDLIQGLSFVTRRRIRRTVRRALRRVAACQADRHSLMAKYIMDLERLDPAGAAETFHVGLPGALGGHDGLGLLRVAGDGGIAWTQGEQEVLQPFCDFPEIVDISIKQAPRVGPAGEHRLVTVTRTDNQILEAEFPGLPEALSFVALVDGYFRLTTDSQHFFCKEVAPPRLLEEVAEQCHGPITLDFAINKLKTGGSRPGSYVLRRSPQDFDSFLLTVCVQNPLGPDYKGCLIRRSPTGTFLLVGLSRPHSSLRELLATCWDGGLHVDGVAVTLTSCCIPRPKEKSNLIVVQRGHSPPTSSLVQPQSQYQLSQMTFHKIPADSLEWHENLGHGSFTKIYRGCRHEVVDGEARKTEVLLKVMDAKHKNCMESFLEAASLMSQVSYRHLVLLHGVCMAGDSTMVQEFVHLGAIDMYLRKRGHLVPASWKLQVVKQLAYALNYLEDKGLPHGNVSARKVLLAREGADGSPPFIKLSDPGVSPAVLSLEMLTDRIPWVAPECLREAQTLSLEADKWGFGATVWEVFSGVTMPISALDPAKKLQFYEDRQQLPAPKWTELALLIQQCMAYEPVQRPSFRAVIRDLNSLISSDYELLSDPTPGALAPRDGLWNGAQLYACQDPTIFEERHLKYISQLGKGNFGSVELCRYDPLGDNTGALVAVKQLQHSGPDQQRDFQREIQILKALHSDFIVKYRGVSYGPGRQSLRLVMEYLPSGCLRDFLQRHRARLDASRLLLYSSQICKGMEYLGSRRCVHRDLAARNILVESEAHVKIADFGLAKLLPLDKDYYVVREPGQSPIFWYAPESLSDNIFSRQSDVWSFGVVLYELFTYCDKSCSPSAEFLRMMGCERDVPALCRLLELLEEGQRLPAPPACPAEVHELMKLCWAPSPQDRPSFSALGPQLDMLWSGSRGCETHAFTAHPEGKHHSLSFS
Tyk2, sequence (P29597 whole entry): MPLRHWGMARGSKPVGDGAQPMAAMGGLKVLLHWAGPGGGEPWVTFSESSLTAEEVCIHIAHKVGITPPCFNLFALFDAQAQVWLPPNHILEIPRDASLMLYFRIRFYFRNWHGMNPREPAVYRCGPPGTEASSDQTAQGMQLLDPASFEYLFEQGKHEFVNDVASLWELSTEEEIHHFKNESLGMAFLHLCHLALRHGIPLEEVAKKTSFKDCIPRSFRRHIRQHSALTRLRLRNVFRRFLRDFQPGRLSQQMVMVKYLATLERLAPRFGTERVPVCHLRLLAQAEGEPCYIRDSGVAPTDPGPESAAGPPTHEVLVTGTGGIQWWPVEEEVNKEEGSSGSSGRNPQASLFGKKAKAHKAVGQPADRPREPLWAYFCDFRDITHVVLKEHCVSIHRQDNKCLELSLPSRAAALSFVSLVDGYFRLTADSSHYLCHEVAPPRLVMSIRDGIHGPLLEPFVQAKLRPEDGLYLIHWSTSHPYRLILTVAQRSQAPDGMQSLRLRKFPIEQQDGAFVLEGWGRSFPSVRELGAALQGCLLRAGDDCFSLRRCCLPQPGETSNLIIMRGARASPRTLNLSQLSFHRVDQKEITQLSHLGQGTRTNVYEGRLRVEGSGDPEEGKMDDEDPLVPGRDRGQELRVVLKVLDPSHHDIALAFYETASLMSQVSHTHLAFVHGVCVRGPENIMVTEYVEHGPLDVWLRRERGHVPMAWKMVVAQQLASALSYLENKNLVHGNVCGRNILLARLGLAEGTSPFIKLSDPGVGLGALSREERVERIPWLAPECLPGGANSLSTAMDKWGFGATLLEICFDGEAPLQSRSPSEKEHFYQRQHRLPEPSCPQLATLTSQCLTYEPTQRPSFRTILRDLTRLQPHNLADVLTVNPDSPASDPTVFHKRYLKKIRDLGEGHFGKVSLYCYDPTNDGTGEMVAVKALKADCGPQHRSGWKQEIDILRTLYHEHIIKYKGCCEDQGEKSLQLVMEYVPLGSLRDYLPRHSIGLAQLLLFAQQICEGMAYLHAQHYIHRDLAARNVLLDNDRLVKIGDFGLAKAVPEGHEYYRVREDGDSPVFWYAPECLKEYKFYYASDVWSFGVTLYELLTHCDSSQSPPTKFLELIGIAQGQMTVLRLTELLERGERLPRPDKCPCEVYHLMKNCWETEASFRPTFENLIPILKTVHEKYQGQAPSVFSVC

Row | Structure (SMILES) | IC50 (Tyk2) [µM] | IC50 (JAK3) [µM] | IC50 (JAK1) [µM] | IC50 (JAK2) [µM] | IC50 (Tyk2; Table^a 154) [µM] | IC50 (JAK3; Table^a 154) [µM] | IC50 (JAK1; Table^a 154) [µM] | IC50 (JAK2; Table^a 154) [µM]
1 | CC(C)(O)C1CCN(C[C@H]2CC[C@H](c3nnn4cnc5[nH]ccc5c34)CC2)CC1 [compound 311, 2-(1-{[trans-4-(7H-pyrrolo[3,2-e][1,2,3]triazolo[1,5-c]pyrimidin-1-yl)cyclohexyl]methyl}piperidin-4-yl)propan-2-ol] | 0.94 | > 1 | 0.025 | 0.16 |  |  |  | 
2 | O=S(=O)(C[C@H]1CC[C@H](c2nnn3cnc4[nH]ccc4c23)CC1)NCC(F)(F)F [compound 420, 1-[trans-4-(7H-pyrrolo[3,2-e][1,2,3]triazolo[1,5-c]pyrimidin-1-yl)cyclohexyl]-N-(2,2,2-trifluoroethyl)methanesulfonamide] | 0.3 | 0.41 | 0.0057 | 0.015 |  |  |  | 
3 | Cc1cc(NC(=O)N2CCCC(c3nnn4cnc5[nH]ccc5c34)C2)sn1 (racemic) [compound 21] |  |  |  |  | 0.71 | 0.9 | 0.015 | 0.11
4 | c1cc2c(ncn3nnc([C@H]4CC[C@H](CNC5COC5)CC4)c23)[nH]1 [compound 294, N-{[trans-4-(7H-pyrrolo[3,2-e][1,2,3]triazolo[1,5-c]pyrimidin-1-yl)cyclohexyl]methyl}oxetan-3-amine] | 0.34 | 0.48 | 0.022 | 0.12 |  |  |  | 
5 | FC(F)Oc1ccc(CN2CCC(c3nnn4cnc5[nH]ccc5c34)CC2)cc1 [compound 220, 1-{1-[4-(difluoromethoxy)benzyl]piperidin-4-yl}-7H-pyrrolo[3,2-e][1,2,3]triazolo[1,5-c]pyrimidine] | > 1 | 0.62 | 0.013 | 0.086 |  |  |  | 
6 | N#CCC(=O)NC[C@H]1CC[C@H](c2nnn3cnc4[nH]ccc4c23)CC1 [compound 372, N-{[trans-4-(7H-Pyrrolo[3,2-e][1,2,3]triazolo[1,5-c]pyrimidin-1-yl)cyclohexyl]methyl}-2-cyanoacetamide] | 0.41 | 0.23 | 0.0041 | 0.016 |  |  |  | 
7 | CCS(=O)(=O)N1CCN(C[C@H]2CC[C@H](c3nnn4cnc5[nH]ccc5c34)CC2)CC1 [compound 345, 1-(trans-4-{[4-(ethylsulfonyl)piperazin-1-yl]methyl}cyclohexyl)-7H-pyrrolo[3,2-e][1,2,3]triazolo[1,5-c]pyrimidine] | > 1 | > 1 | 0.025 | 0.2 |  |  |  | 
8 | FC(F)(F)CN[C@H]1CC[C@H](c2nnn3cnc4[nH]ccc4c23)CC1 [395b, trans-4-(7H-pyrrolo[3,2-e][1,2,3]triazolo[1,5-c]pyrimidin-1-yl)-N-(2,2,2-trifluoroethyl)cyclohexanamine] | 0.15 | 0.61 | 0.0022 | 0.01 |  |  |  | 
9 | CN(C)[C@@H]1CCN(C[C@H]2CC[C@H](c3nnn4cnc5[nH]ccc5c34)CC2)C1 [compound 340, (R)-1-{[trans-4-(7H-pyrrolo[3,2-e][1,2,3]triazolo[1,5-c]pyrimidin-1-yl)cyclohexyl]methyl}-N,N-dimethylpyrrolidin-3-amine] | > 1 | > 1 | 0.021 | 0.23 |  |  |  | 
10 | CN(C)S(=O)(=O)C[C@H]1CC[C@H](c2nnn3cnc4[nH]ccc4c23)CC1 [compound 418, 1-[trans-4-(7H-pyrrolo[3,2-e][1,2,3]triazolo[1,5-c]pyrimidin-1-yl)cyclohexyl]-N,N-dimethylmethanesulfonamide] | 0.17 | 0.33 | 0.0043 | 0.0084 |  |  |  | 
11 | O=C(NCCO)[C@H]1CC[C@H](c2nnn3cnc4[nH]ccc4c23)CC1 [compound 360, trans-N-(2-hydroxyethyl)-4-(7H-pyrrolo[3,2-e][1,2,3]triazolo[1,5-c]pyrimidin-1-yl)cyclohexanecarboxamide] | 0.33 | > 1 | 0.026 | 0.1 |  |  |  | 
12 | CN(C)[C@H]1CCN(C[C@H]2CC[C@H](c3nnn4cnc5[nH]ccc5c34)CC2)C1 [compound 181, (S)-1-{[trans-4-(7H-pyrrolo[3,2-e][1,2,3]triazolo[1,5-c]pyrimidin-1-yl)cyclohexyl]methyl}-N,N-dimethylpyrrolidin-3-amine] |  |  |  |  | 0.49 | > 1 | 0.024 | 0.13
13 | COc1ccc(C(O)(CN[C@H]2CC[C@H](c3nnn4cnc5[nH]ccc5c34)CC2)C(F)(F)F)cc1OC (stereo partly drawn) [390b, 3-{[trans-4-(7H-pyrrolo[3,2-e][1,2,3]triazolo[1,5-c]pyrimidin-1-yl)cyclohexyl]amino}-2-(3,4-dimethoxyphenyl)-1,1,1-trifluoropropan-2-ol] | 0.36 | 0.52 | 0.0024 | 0.089 |  |  |  | 
14 | Fc1ccc(C2(NC[C@H]3CC[C@H](c4nnn5cnc6[nH]ccc6c45)CC3)CCC2)cc1 [compound 324, N-{[trans-4-(7H-pyrrolo[3,2-e][1,2,3]triazolo[1,5-c]pyrimidin-1-yl)cyclohexyl]methyl}-1-(4-fluorophenyl)cyclobutanamine] | 0.75 | 0.66 | 0.0034 | 0.034 |  |  |  | 
15 | CCNC[C@H]1CC[C@H](c2nnn3cnc4[nH]ccc4c23)CC1 [compound 330, N-{[trans-4-(7H-pyrrolo[3,2-e][1,2,3]triazolo[1,5-c]pyrimidin-1-yl)cyclohexyl]methyl}ethanamine] | 0.14 | > 1 | 0.0074 | 0.047 |  |  |  | 
16 | NC(=O)[C@H]1CC[C@H](c2nnn3cnc4[nH]ccc4c23)CC1 [compound 348, trans-4-(7H-pyrrolo[3,2-e][1,2,3]triazolo[1,5-c]pyrimidin-1-yl)cyclohexanecarboxamide] | 0.29 | 0.75 | 0.0099 | 0.051 |  |  |  | 
17 | CC(NC[C@H]1CC[C@H](c2nnn3cnc4[nH]ccc4c23)CC1)c1ccc(F)c(F)c1 (mixture of isomers) [compound 109] |  |  |  |  | 0.072 | 0.16 | 0.0016 | 0.011
18 | Fc1ccc(CCN[C@H]2CC[C@H](c3nnn4cnc5[nH]ccc5c34)CC2)cc1 [201b, trans-N-(4-fluorophenethyl)-4-(7H-pyrrolo[3,2-e][1,2,3]triazolo[1,5-c]pyrimidin-1-yl)cyclohexanamine] |  |  |  |  | 0.1 | 0.41 | 0.0039 | 0.066
19 | CC(C)NC[C@H]1CC[C@H](c2nnn3cnc4[nH]ccc4c23)CC1 [compound 331, N-{[trans-4-(7H-pyrrolo[3,2-e][1,2,3]triazolo[1,5-c]pyrimidin-1-yl)cyclohexyl]methyl}propan-2-amine] | 0.42 | > 1 | 0.0088 | 0.054 |  |  |  | 
20 | Fc1ccc(CCNC[C@H]2CC[C@H](c3nnn4cnc5[nH]ccc5c34)CC2)cc1 [compound 111] |  |  |  |  | 0.028 | 0.22 | 0.0019 | 0.027
21 | CN(CCC#N)c1ccc(CN2CCC(c3nnn4cnc5[nH]ccc5c34)CC2)cc1 [compound 226, 3-[(4-{[4-(7H-pyrrolo[3,2-e][1,2,3]triazolo[1,5-c]pyrimidin-1-yl)piperidin-1-yl]methyl}phenyl)(methyl)amino]propanenitrile] | > 1 | > 1 | 0.28 | > 1 |  |  |  | 
22 | FC1(F)Oc2ccc(CN3CCC(c4nnn5cnc6[nH]ccc6c45)CC3)cc2O1 [compound 227, 1-{1-[(2,2-Difluorobenzo[d][1,3]dioxol-5-yl)methyl]piperidin-4-yl}-7H-pyrrolo[3,2-e][1,2,3]triazolo[1,5-c]pyrimidine] | 0.57 | 0.079 | 0.0025 | 0.021 |  |  |  | 
23 | CC1(O)CN(C[C@H]2CC[C@H](c3nnn4cnc5[nH]ccc5c34)CC2)C1 [compound 422, 1-{[trans-4-(7H-pyrrolo[3,2-e][1,2,3]triazolo[1,5-c]pyrimidin-1-yl)cyclohexyl]methyl}-3-methylazetidin-3-ol] | 0.13 | > 1 | 0.0028 | 0.051 |  |  |  | 
24 | Fc1ccc2c(c1)CCN2C[C@H]1CC[C@H](c2nnn3cnc4[nH]ccc4c23)CC1 [compound 179, 1-[trans-4-((5-fluoroindolin-1-yl)methyl)cyclohexyl]-7H-pyrrolo[3,2-e][1,2,3]triazolo[1,5-c]pyrimidine] |  |  |  |  | > 1 | > 1 | 0.028 | 0.094
25 | O=C(NCCc1ccc(Cl)cc1)[C@H]1CC[C@H](c2nnn3cnc4[nH]ccc4c23)CC1 [compound 352, trans-N-(4-chlorophenethyl)-4-(7H-pyrrolo[3,2-e][1,2,3]triazolo[1,5-c]pyrimidin-1-yl)cyclohexanecarboxamide] | > 1 | > 1 | 0.005 | 0.029 |  |  |  | 
26 | FC(F)(F)C(NC[C@H]1CC[C@H](c2nnn3cnc4[nH]ccc4c23)CC1)C(F)(F)F [compound 317, N-{[trans-4-(7H-pyrrolo[3,2-e][1,2,3]triazolo[1,5-c]pyrimidin-1-yl)cyclohexyl]methyl}-1,1,1,3,3,3-hexafluoropropan-2-amine] | 0.62 | 0.47 | 0.0013 | 0.016 |  |  |  | 
27 | c1cc2c(ncn3nnc([C@H]4CC[C@H](CN5CCC5)CC4)c23)[nH]1 [compound 286, 1-[trans-4-(azetidin-1-ylmethyl)cyclohexyl]-7H-pyrrolo[3,2-e][1,2,3]triazolo[1,5-c]pyrimidine] | 0.23 | 0.57 | 0.0059 | 0.035 |  |  |  | 
28 | N#CCN(C[C@H]1CC[C@H](c2nnn3cnc4[nH]ccc4c23)CC1)C(=O)CC(F)(F)F [compound 412, N-{[trans-4-(7H-Pyrrolo[3,2-e][1,2,3]triazolo[1,5-c]pyrimidin-1-yl)cyclohexyl]methyl}-N-(cyanomethyl)-3,3,3-trifluoropropanamide] | 0.32 | 0.054 | 0.0026 | 0.0056 |  |  |  | 

Reference: patent US9216999B2, “Substituted pyrrolo[2,3-h][1,6]naphthyridines and compositions thereof as JAK inhibitors” (priority 2011, dated 2015)
